ChEMBL document CHEMBL1137485, “Design, synthesis, and biological testing of pyrazoline derivatives of combretastatin-A4” (Bioorg Med Chem Lett, 2007)

Columns and labels:
B16 = assay: Cytotoxicity against mouse B16 cells after 72 hrs by MTT assay; format: functional, cell-based; settings: B16, 72 h
L1210 = assay: Cytotoxicity against mouse L1210 cells after 72 hrs by MTT assay; format: functional, cell-based; settings: L1210, 72 h
A10 [1] = assay: Reduction of microtubules in […] A10 cells; format: functional, cell-based; settings: Rattus norvegicus
A10 [2] = assay: Reduction of microtubules in human A10 cells at 40 uM; format: functional; design: scale not given: the % may be the effect or the level left

Compound	IC50 (B16)	IC50 (L1210)	EC50 (A10 [1])	Activity (A10 [2])
COc1ccc(C2CC(c3cc(OC)c(OC)c(OC)c3)=NN2C(C)=O)cc1[N+](=O)[O-] (stereo not drawn)	> 100 µM	52 µM	–	–
COc1ccc(OC)c(C2CC(c3cc(OC)c(OC)c(OC)c3)=NN2C(C)=O)c1 (stereo not drawn)	> 100 µM	> 100 µM	–	–
COc1cc(C2=NNC(c3cc(OC)c(OC)c(OC)c3)C2)cc(OC)c1OC (stereo not drawn)	56 µM	24 µM	–	–
COc1ccc(C2CC(c3cc(OC)c(OC)c(OC)c3)=NN2)cc1OC (stereo not drawn)	44 µM	42 µM	–	–
COc1ccccc1C1CC(c2cc(OC)c(OC)c(OC)c2)=NN1C(C)=O (stereo not drawn)	> 100 µM	43 µM	–	–
COc1cc(C2=NN(C(C)=O)C(c3ccc(Cl)cc3)C2)cc(OC)c1OC (stereo not drawn)	35 µM	30 µM	–	–
COc1ccc(C2CC(c3cc(OC)c(OC)c(OC)c3)=NN2)cc1O (stereo not drawn)	2.1 µM	0.5 µM	7.1 µM	–
COc1cc(C2=NN(C(C)=O)C(c3ccc([N+](=O)[O-])cc3)C2)cc(OC)c1OC (stereo not drawn)	51 µM	42 µM	–	–
COc1ccc(OC)c(C2=NN(C(C)=O)C(c3ccc(OC)c(OC)c3)C2)c1 (stereo not drawn)	62 µM	28 µM	–	–
COc1cc(OC)c(C2CC(c3cc(OC)ccc3OC)=NN2C(C)=O)c(OC)c1 (stereo not drawn)	69 µM	33 µM	–	–
COc1ccc(C2CC(c3cc(OC)c(OC)c(OC)c3)=NN2C(C)=O)cc1O (stereo not drawn)	> 100 µM	> 100 µM	–	10%
COc1cccc(C2CC(c3cc(OC)c(OC)c(OC)c3)=NN2C(C)=O)c1 (stereo not drawn)	> 100 µM	44 µM	–	–
COc1ccc(OC)c(C2=NN(C(C)=O)C(c3ccc(OC)c([N+](=O)[O-])c3)C2)c1 (stereo not drawn)	58 µM	40 µM	–	–
